Laboratory results as given in publication PMC2715367 (Journal of medicinal chemistry, 2009).
Marks after values point to notes of the source that are not given here.

Legend:
rat PFT = rat PFT (Rattus norvegicus, UniProt Q02293+Q04631); test: Rat PFT scintillation proximity assay; assay type: biochemical; details: for Fold increase in PFT IC50 (decrease in PFT inhibition) compared to tipifarnib: rat PFT
human 14DM = biological target: T1, human 14DM (Homo sapiens, UniProt Q16850); test: Inhibition of human 14DM; assay type: biochemical; details: same conditions as Tc14DM assay
T1 sequence (Q16850 1-509): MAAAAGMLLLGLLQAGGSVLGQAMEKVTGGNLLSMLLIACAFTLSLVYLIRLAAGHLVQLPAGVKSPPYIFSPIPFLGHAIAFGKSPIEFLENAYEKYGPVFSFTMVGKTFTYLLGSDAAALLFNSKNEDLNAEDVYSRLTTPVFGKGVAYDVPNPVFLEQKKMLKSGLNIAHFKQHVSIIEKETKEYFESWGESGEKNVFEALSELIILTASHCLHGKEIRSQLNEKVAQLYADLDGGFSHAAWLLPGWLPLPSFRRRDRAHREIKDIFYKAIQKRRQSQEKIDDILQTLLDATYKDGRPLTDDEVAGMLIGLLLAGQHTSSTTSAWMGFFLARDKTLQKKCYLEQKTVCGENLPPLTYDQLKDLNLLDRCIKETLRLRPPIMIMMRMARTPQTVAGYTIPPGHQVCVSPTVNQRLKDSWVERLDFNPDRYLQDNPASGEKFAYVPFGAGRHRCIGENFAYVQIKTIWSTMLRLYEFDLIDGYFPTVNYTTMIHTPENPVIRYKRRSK

[1] = Pharmacokinetic studies in mice; details: female, BALB/c, mouse, po, 50 mg/kg
[2] = system: T. cruzi trypomastigotes (Tulahuen strain); test: Efficacy studies in T. cruzi infected mice; assay type: in vivo; details: for Weight loss in mice: 100 mg/kg twice per day, days 8−13; for Survival of infected mice: oral gavage for 20 days from day 8 post-infection
[3] = biological target: recombinant human CYP3A4 enzyme (Homo sapiens, UniProt P08684); test: CYP3A4 inhibition assay; assay type: in vitro ADME; details: in vitro
[4] = system: mammalian cytochrome P450 enzymes; details: cited from earlier work
T. cruzi amastigotes = test: T. cruzi growth inhibition assay; assay type: cell-based; details: Trypanosoma cruzi, read-out: T. cruzi amastigote EC50
T. cruzi PFT enzyme = details: cited from earlier work
[5] = cited from earlier work
[6] = oral; cited from earlier work

recombinant human CYP3A4 enzyme, sequence (P08684 whole entry): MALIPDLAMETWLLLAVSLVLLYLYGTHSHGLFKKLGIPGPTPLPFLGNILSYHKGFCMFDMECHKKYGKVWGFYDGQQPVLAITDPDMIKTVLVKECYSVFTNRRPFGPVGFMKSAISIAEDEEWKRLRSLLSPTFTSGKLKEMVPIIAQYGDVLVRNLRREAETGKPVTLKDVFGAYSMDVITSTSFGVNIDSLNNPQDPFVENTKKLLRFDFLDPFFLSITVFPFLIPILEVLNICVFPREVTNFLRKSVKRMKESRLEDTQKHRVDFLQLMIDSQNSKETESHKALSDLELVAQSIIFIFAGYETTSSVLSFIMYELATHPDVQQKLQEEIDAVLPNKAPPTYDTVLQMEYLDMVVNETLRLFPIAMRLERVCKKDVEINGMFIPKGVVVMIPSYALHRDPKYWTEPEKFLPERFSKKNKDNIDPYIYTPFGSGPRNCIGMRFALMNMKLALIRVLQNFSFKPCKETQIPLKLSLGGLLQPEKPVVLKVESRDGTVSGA

With `Cc1cc([C@@](N)(c2ccc3c(c2)c(-c2cccc(Cl)c2)cc(=O)n3C)c2cncn2C)ccc1Cl` (racemic) [Compound 2a] the “Fold increase in PFT IC50 (decrease in PFT inhibition) compared to tipifarnib” value (rat PFT) was 19 fold.

In the case of `Cc1c(Cl)cccc1-c1cc(=O)n(C)c2ccc([C@](N)(c3ccc(Cl)cc3)c3cncn3C)cc12` (racemic) [Compound 2c], the “Inhibition of human 14DM” value (human 14DM) is reported as “do not inhibit”.

In the case of `Cc1ccccc1-c1cc(=O)n(C)c2ccc([C@](N)(c3ccc(Cl)cc3)c3cncn3C)cc12` (racemic) [Compound 2d], the “Fold increase in PFT IC50 (decrease in PFT inhibition) compared to tipifarnib” value (rat PFT) is reported as “about 430 fold”.

With `Cn1cncc1[C@@](N)(c1ccc(Cl)cc1)c1ccc2c(c1)c(-c1cccc3ccccc13)cc(=O)n2C` (racemic) [Compound 2f] the “Inhibition of human 14DM” value (human 14DM) was “do not inhibit”.

For `COC(c1ccc(Cl)cc1)(c1ccc2c(c1)c(-c1cccc(Cl)c1C)cc(=O)n2C)c1cncn1C` (racemic) [Compound 2g, 4-(3-Chloro-2-methylphenyl)-6-((4-chlorophenyl)(methoxy)(1-methyl-1H-imidazol-5-yl)methyl)-1-methylquinolin-2(1H)-one], the Cmax ([1]; plasma) was 5 to 7 µM, the “Inhibition of human 14DM” value (human 14DM) was “do not inhibit” and the “Ratio IC50/EC50” value (rat PFT; PFT IC50 / T. cruzi amastigote EC50) was >7700 ^*. For the same molecule, the inhibition at 5 µM (rat PFT; read-out: PFT inhibition at highest concentration evaluated) was < 50%, the “Weight loss in mice” value [2] was “some weight loss was observed” and the “Survival of infected mice” value [2] was “One mouse in the 2g group died after the end of treatment”. For the same molecule, the “Inhibition of CYP3A4 (in words)” value [3] was “weak inhibition”.

In the case of `O=C(Cn1ccnc1[N+](=O)[O-])NCc1ccccc1` [Benznidazole, benznidazole], the “Mice with positive parasite blood cultures” value ([2]; surviving mice sacrificed at day 103 post-infection) is reported as 3 of 6.

In the case of `Cn1cncc1[C@@](N)(c1ccc(Cl)cc1)c1ccc2c(c1)c(-c1cccc(Cl)c1)cc(=O)n2C` [Tipifarnib, tipifarnib], the “Inhibitory activity against mammalian cytochrome P450 enzymes” value [4] is given as “very little inhibitory activity”, the Cmax ([1]; in vivo) is given as 5 to 7 µM and the half-life ([1]; in vivo) is given as ~4 h. For the same molecule, the EC50 (T. cruzi amastigotes) was 6 nM, the “Inhibition of human 14DM” value (human 14DM) was “do not inhibit” and the “Activity against isolated T. cruzi PFT enzyme” value (T. cruzi PFT enzyme) was “weak activity”. The “Weight loss in mice” value [2] was “some weight loss was observed”, the “Survival of infected mice” value [2] was “did not protect the mice from death” and the “Delay in development of high parasitemia” value ([2]; oral gavage twice daily from day 8 post-infection) was 3−4 days. For the same molecule, the “Dose limiting toxicities in humans” value [5] was “bone marrow suppression” and the Terminal half-life [6] was 16 h.
